Test results: patent US20260297042A1, “BIARYLAMIDE DERIVATIVES AND THEIR USE AS PKMYT1 INHIBITORS” (CANCER RESEARCH TECHNOLOGY LIMITED, priority 2023, published 2026)

How the values were obtained:
WEE1 = biological target: T1, WEE1 (Homo sapiens, UniProt P30291); assay: Selectivity versus WEE1 assay (ADP-Glo enzymatic assay); type: biochemical; details: for IC50: ADP-Glo; for PKMYT1 vs. WEE1 selectivity: fold difference in selectivity for PKMYT1 over WEE1
T1 construct: purchased Thermo Fisher PR7373A
T1 sequence (P30291 whole entry): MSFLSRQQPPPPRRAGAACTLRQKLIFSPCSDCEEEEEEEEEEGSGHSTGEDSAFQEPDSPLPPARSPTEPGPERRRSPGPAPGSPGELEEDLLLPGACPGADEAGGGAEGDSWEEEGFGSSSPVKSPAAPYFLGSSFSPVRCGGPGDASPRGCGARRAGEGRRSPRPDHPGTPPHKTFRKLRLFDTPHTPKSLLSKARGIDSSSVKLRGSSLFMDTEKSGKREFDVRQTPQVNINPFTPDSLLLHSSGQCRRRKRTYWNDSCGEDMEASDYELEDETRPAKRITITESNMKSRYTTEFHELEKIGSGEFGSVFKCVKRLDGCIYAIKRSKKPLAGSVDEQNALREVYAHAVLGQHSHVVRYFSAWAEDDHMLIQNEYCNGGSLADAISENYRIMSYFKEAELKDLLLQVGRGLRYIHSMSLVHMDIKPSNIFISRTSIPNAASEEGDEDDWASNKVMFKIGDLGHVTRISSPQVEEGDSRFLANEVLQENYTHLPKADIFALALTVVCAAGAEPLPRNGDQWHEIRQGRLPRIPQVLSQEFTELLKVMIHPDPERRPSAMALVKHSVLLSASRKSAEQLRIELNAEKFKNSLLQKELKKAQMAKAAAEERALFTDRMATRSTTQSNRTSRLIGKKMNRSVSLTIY
How it was run: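 Compounds were pre-dispensed, enzyme (15 nM final) was added in pH 7.5 HEPES buffer, and ATP ([…]) then started a 60 min incubation at 26° C. Afterwards ADP-Glo reagents were added in turn and luminescence was measured to derive IC50 values.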

Human PKMYT1 = biological target: T2, Human PKMYT1 (Homo sapiens, UniProt Q99640); assay: PKMYT1 biochemical ADP-Glo enzymatic assay; details: ADP-Glo
T2 construct: Human PKMYT1 75-362 was cloned as a TEV cleavable 6xHis fusion; 6xHis (TEV cleavable) (cleaved yes); made in house; host or cells: bacterial cells
T2 sequence (Q99640 75-362): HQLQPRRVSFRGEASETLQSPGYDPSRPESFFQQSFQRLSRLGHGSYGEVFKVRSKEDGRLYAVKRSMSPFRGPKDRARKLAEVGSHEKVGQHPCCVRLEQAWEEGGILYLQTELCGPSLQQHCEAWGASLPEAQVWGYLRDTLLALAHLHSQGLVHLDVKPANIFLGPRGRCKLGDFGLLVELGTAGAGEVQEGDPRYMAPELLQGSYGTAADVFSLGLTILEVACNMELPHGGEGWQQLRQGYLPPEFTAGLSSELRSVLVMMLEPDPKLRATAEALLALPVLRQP
How it was run: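 Compounds were titrated over 10 points (3-fold steps), then 15 nM purified PKMYT1 kinase domain (aa 75-362) and 500 µM ATP were added in pH 7.5 HEPES buffer. After 60 min at 26 °C, remaining ATP was depleted and ADP converted to luminescence for IC50 fitting.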

KYSE-30 cells = assay: Cancer cell line proliferation assay, ATP-based cell viability (Cell Titre Glow), KYSE-30 (normal CCNE1); details: Homo sapiens, KYSE-30 cells (normal CCNE1), concentration that achieves 50% cell growth proliferation inhibition, read-out: KYSE30 Gl50
How it was run: (§1)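 GI50 values, the concentrations halving cell growth, were derived from ATP-based luminescence (Cell Titre Glo) after PKMYT1 inhibitor exposure. Cells tested were OVCAR 3, an ovarian line with amplified CCNE1, and KYSE-30, which has normal CCNE1.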

[1] = biological target: T3, Cellular PKMYT1 Biomarker CDK1 pT14 (Homo sapiens, UniProt Q99640); assay: Inhibition of cellular PKMYT1 biomarker CDK1 pT14 in OVCAR 3 cells (immunoblot); type: cell-based; details: 20 hours incubation
T3 construct: read-out CDK1 phospho-T14 immunoblot
T3 sequence (Q99640 1-499): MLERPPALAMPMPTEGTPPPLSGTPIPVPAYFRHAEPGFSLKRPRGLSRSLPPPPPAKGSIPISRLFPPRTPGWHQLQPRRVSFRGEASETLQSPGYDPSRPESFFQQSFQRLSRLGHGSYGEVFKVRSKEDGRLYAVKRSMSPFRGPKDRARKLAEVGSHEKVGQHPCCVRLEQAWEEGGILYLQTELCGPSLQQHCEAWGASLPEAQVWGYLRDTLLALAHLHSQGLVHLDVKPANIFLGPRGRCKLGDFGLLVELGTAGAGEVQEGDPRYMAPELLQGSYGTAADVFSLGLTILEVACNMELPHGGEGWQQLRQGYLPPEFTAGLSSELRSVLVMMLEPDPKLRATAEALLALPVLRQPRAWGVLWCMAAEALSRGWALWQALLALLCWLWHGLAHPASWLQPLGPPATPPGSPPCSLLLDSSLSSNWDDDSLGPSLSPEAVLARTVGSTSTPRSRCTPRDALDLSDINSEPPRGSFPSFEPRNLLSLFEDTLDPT
How it was run: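 Confluent OVCAR 3 cells treated with a compound concentration range for 20 h at 37 °C. Lysates analysed by automated capillary immunoblot for CDK1 phospho-T14, with vinculin, fluorescence detection; IC50 by regression.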

OVCAR 3 cells = assay: Cancer cell line proliferation assay, ATP-based cell viability (Cell Titre Glow), OVCAR 3 (CCNE1-amplified); details: KYSE30 (normal CCNE1) GI50 vs. OVCAR 3 (CCNE1-amplified) GI50
How it was run: as §1

[2] = 15 nM WEE1, 60 minutes at 26° C., banded
[3] = banded, ">N" = at least in this band but could be higher
[4] = 15 nM PKMYT1 kinase domain, 500 µM ATP, 60 minutes at 26° C., banded
[5] = PKMYT1 kinase domain 15 nM, banded values

SMILES	IC50 (WEE1; [2])	PKMYT1 vs. WEE1 selectivity (WEE1; [3])	IC50 (Human PKMYT1; [4])	GI50 (KYSE-30 cells)	IC50 [1]	Selectivity ratio KYSE30 Gl50 vs. OVCAR3 Gl50 (OVCAR 3 cells)	IC50 (WEE1; WEE1 15 nM, banded values)	PKMYT1 vs. WEE1 selectivity (WEE1; banded)	IC50 (Human PKMYT1; [5])
Cc1ccc(NC(=O)c2ccc(C(F)(F)F)cc2)nc1Nc1ncc(C(=O)Nc2c(C)ccc(O)c2C)s1 [BAA-328, N-(3-Hydroxy-2,6-dimethylphenyl)-2-((3-methyl-6-(4-(trifluoromethyl)benzamido)pyridin-2-yl)amino)thiazole-5-carboxamide]	> 11 µM	X (100-<1000 fold)	0.05 to 1 µM	> 5 µM	< 0.1 µM	Y (>20 fold)			
Cc1ccc(O)c(C)c1NC(=O)c1cnc(Nc2ccc3ncccc3n2)s1 [BAA-596, 2-((1,5-naphthyridin-2-yl)amino)-N-(3-hydroxy-2,6-dimethylphenyl)thiazole-5-carboxamide]				0.5 to 5 µM	0.1 to 1 µM	Y (>20 fold)	> 11 µM	Y (1000-5000 fold)	< 0.05 µM
Cc1cnccc1-n1cc(C)c(Nc2ncc(C(=O)Nc3c(C)ccc(O)c3C)s2)n1 [BAA-384, N-(3-hydroxy-2,6-dimethylphenyl)-2-((4-methyl-1-(3-methylpyridin-4-yl)-1H-pyrazol-3-yl)amino)thiazole-5-carboxamide]	1 to 11 µM	X (100-<1000 fold)	< 0.05 µM	0.5 to 5 µM	< 0.1 µM	Y (>20 fold)			
CCc1c[nH]nc1Nc1ncc(C(=O)Nc2c(C)ccc(O)c2C)s1 [BAA-594, 2-((4-Ethyl-1H-pyrazol-3-yl)amino)-N-(3-hydroxy-2,6-dimethylphenyl)thiazole-5-carboxamide]				> 5 µM	< 0.1 µM	Y (>20 fold)	1 to 11 µM	X (100-<1000 fold)	< 0.05 µM
Cc1cn(CC(=O)N(C)C2CC2)nc1Nc1ncc(C(=O)Nc2c(C)ccc(O)c2C)s1 [BAA-554, 2-((1-(2-(cyclopropyl(methyl)amino)-2-oxoethyl)-4-methyl-1H-pyrazol-3-yl)amino)-N-(3-hydroxy-2,6-dimethylphenyl)thiazole-5-carboxamide]				> 5 µM	< 0.1 µM	Y (>20 fold)	1 to 11 µM	X (100-<1000 fold)	< 0.05 µM
Cc1cn(C2CCC2)nc1Nc1ncc(C(=O)Nc2c(C)ccc(O)c2C)s1 [BAA-270, 2-((1-cyclobutyl-4-methyl-1H-pyrazol-3-yl)amino)-N-(3-hydroxy-2,6-dimethylphenyl)thiazole-5-carboxamide]	1 to 11 µM	X (100-<1000 fold)	< 0.05 µM	< 0.5 µM	< 0.1 µM	Y (>20 fold)			
Cc1cn(CC(F)(F)F)nc1Nc1ncc(C(=O)Nc2c(C)ccc(O)c2C)s1 [BAA-271, N-(3-hydroxy-2,6-dimethylphenyl)-2-((4-methyl-1-(2,2,2-trifluoroethyl)-1H-pyrazol-3-yl)amino) thiazole-5-carboxamide]	> 11 µM	X (100-<1000 fold)	< 0.05 µM	> 5 µM	< 0.1 µM	Y (>20 fold)			
CCN(CC)C(=O)C(C)n1cc(C)c(Nc2ncc(C(=O)Nc3c(C)ccc(O)c3C)s2)n1 (stereo not drawn) [BAA-510, 2-((1-(1-(diethylamino)-1-oxopropan-2-yl)-4-methyl-1H-pyrazol-3-yl)amino)-N-(3-hydroxy-2,6-dimethylphenyl)thiazole-5-carboxamide]				> 5 µM	< 0.1 µM	Y (>20 fold)	1 to 11 µM	X (100-<1000 fold)	< 0.05 µM
CCn1nc(Nc2ncc(C(=O)Nc3c(C)ccc(O)c3C)s2)c2cc(C(F)(F)F)ccc21 [BAA-456, 2-((1-ethyl-5-(trifluoromethyl)-1H-indazol-3-yl)amino)-N-(3-hydroxy-2,6-dimethylphenyl)thiazole-5-carboxamide]				0.5 to 5 µM	< 0.1 µM	X (3-20 fold)	> 11 µM	Y (1000-5000 fold)	0.05 to 1 µM
Cc1cn(C(CO)C(=O)N2CCCC2C(F)(F)F)nc1Nc1ncc(C(=O)Nc2c(C)ccc(O)c2C)s1 (stereo not drawn) [BAA-578, 2-((1-(3-hydroxy-1-oxo-1-(2-(trifluoromethyl)pyrrolidin-1-yl)propan-2-yl)-4-methyl-1H-pyrazol-3-yl)amino)-N-(3-hydroxy-2,6-dimethylphenyl)thiazole-5-carboxamide]				> 5 µM	< 0.1 µM	Y (>20 fold)	1 to 11 µM	X (100-<1000 fold)	< 0.05 µM
Cc1ccc(N)nc1Nc1ncc(C(=O)Nc2c(C)ccc(O)c2C)s1 [BAA-337, 2-((6-amino-3-methylpyridin-2-yl)amino)-N-(3-hydroxy-2,6-dimethylphenyl)thiazole-5-carboxamide]	1 to 11 µM	X (100-<1000 fold)	< 0.05 µM	0.5 to 5 µM	< 0.1 µM	Y (>20 fold)			
Cc1cn(C(CO)C(=O)N2CCCC2)nc1Nc1ncc(C(=O)Nc2c(C)ccc(O)c2C)s1 (stereo not drawn) [BAA-583, 2-((1-(3-Hydroxy-1-oxo-1-(pyrrolidin-1-yl)propan-2-yl)-4-methyl-1H-pyrazol-3-yl)amino)-N-(3-hydroxy-2,6-dimethylphenyl)thiazole-5-carboxamide]				> 5 µM	< 0.1 µM	Y (>20 fold)	1 to 11 µM	X (100-<1000 fold)	< 0.05 µM
Cc1cn(CCF)nc1Nc1ncc(C(=O)Nc2c(C)ccc(O)c2C)s1 [BAA-470, 2-((1-(2-fluoroethyl)-4-methyl-1H-pyrazol-3-yl)amino)-N-(3-hydroxy-2,6-dimethylphenyl)thiazole-5-carboxamide]				> 5 µM	< 0.1 µM	Y (>20 fold)	1 to 11 µM	X (100-<1000 fold)	< 0.05 µM
